Test results taken from publication PMC3866048 (Bioorganic & medicinal chemistry, 2011).
Read-outs that look alike come from different tables or passages of the source.

How the values were obtained:
[1] = biological target: T1, HIV-1 integrase (wild-type IN) (Human immunodeficiency virus type 1 group M subtype B, UniProt P12497); experiment: biochemical
[2] = biological target: T1, HIV-1 integrase (wild-type IN); experiment: biochemical; remark: listed apart in the source
[3] = test system: wild-type HIV-1 strain (strain LAI); experiment: Anti-HIV-1 activity in infected human PBMCs; type: cell-based; conditions: cytotoxicity versus anti-HIV activity
[4] = IC50 ST (strand transfer), wild-type IN 200 nM, 7.5 mM MnCl2
[5] = Actual ST pIC50, −log IC50 of strand transfer, used for 3D-QSAR

SMILES	IC50 [1] [µM]	IC50 [2, 4] [µM]	also measured
O=Cc1cc(Br)cc(C(=O)NCc2ccc(F)cc2)c1O [Compound 8, 5-Bromo-N-(4-fluorobenzyl)-3-formyl-2-hydroxybenzamide]	> 100		
O=C(O)c1cccc(CCCc2ccccc2)c1O [Compound 9, 2-hydroxy-3-(3-phenylpropyl)benzoic acid]	91	> 100	
O=C(O)c1cc(Br)cc(C(=O)/C=C/c2c(Cl)ccc(Cl)c2Cl)c1O [Compound 25, 5-Bromo-2-hydroxy-3-[3-(2,3,6-trichlorophenyl)-acryloyl]benzoic acid]		< 3.7	IC50 [2, 5]: 3.98 µM
O=C(O)c1cc(Cl)cc(C(=O)/C=C/c2ccc(Cl)cc2Cl)c1O [Compound 27, 5-Chloro-3-[3-(2,4-dichlorophenyl)-acryloyl]-2-hydroxybenzoic acid]		> 100	
Cc1cc(C)cc(/C=C/C(=O)c2cc(Br)cc(C(=O)O)c2O)c1 [Compound 39, 5-Bromo-3-[3-(3,5-dimethylphenyl)-acryloyl]-2-hydroxybenzoic acid]	> 100		
COc1ccc(/C=C/C(=O)c2cc(Br)cc(C(=O)O)c2O)c(Cl)c1OC [Compound 40, 5-Bromo-3-[3-(2-chloro-3,4-dimethoxyphenyl)-acryloyl]-2-hydroxybenzoic acid]	> 100		
COc1cc(F)c(/C=C/C(=O)c2cc(Br)cc(C(=O)O)c2O)cc1OC [Compound 41, 5-Bromo-3-[3-(2-fluoro-4,5-dimethoxyphenyl)-acryloyl]-2-hydroxybenzoic acid]	> 100		
COc1ccc2cc(C=CC(=O)c3cc(Br)cc(C(=O)O)c3O)ccc2c1 [Compound 48, 5-Bromo-2-hydroxy-3-[3-(6-methoxynaphthalen-2-yl)-acryloyl]benzoic acid]		54 ± 25	IC50 [2, 5]: 55 µM
O=C(O)c1cc(Br)cc(C(=O)/C=C/c2ccc3sccc3c2)c1O [Compound 49, 3-(3-Benzo[b]thiophen-5-yl-acryloyl)-5-bromo-2-hydroxybenzoic acid]			Selectivity index [3]: up to 4 fold
O=C(O)c1cc(Br)cc(C(=O)/C=C/c2ccccc2-c2ccco2)c1O [Compound 50, 5-Bromo-3-[3-(2-furan-2-yl-phenyl)-acryloyl]-2-hydroxybenzoic acid]	> 100		
O=C(O)c1cc(Br)cc(C(=O)/C=C/c2cccc(OC(F)(F)F)c2)c1O [Compound 52, 5-Bromo-2-hydroxy-3-[3-(3-trifluoromethoxyphenyl)-acryloyl]benzoic acid]	> 100		
N#Cc1cc(Br)cc(C(=O)/C=C/c2c(Cl)ccc(Cl)c2Cl)c1O [Compound 56, 5-Bromo-2-hydroxy-3-[3-(2,3,6--trichlorophenyl)-acryloyl]benzonitrile]	> 100		
Cc1cc(C(=O)O)c(O)c(C(=O)/C=C/c2c(Cl)ccc(Cl)c2Cl)c1 [Compound 57, 2-Hydroxy-5-methyl-3-[3-(2,3,6-trichlorophenyl)-acryloyl]benzoic acid]	> 100		Times less active than corresponding Br-substituted compound 25 ([2]; ST inhibition, comparison with compound 25): 13 times
O=C(/C=C/c1cc(Cl)cc(Cl)c1Cl)c1cc(Br)cc([N+](=O)[O-])c1O [Compound 58, 1-(5-Bromo-2-hydroxy-3-nitrophenyl)-3-(2,3,5-trichlorophenyl)propenone]	> 333	68 ± 5	IC50 [2, 5]: 69.2 µM
O=C(/C=C/c1c(Cl)ccc(Cl)c1Cl)c1cc(Br)cc([N+](=O)[O-])c1O [Compound 59, 1-(5-Bromo-2-hydroxy-3-nitrophenyl)-3-(2,3,6-trichlorophenyl)propenone]	36 ± 4	21 ± 3	IC50 [2, 5]: 21.4 µM
O=C(O)c1cc(F)cc(C(=O)CCc2cc(Cl)ccc2Cl)c1O [Compound 60, 3-[3-(2,5-dichlorophenyl)propionyl]-5-fluoro-2-hydroxybenzoic acid]	> 100		
O=C(O)c1cc(Br)cc(C(=O)NCc2ccc(F)cc2)c1O [Compound 61, 5-Bromo-N-(4-fluorobenzyl)-2-hydroxyisophthalamic acid]	> 100		
Cc1cccc(C(=O)NCc2ccc(F)cc2)c1O [Compound 62, N-(4-Fluoro-benzyl)-2-hydroxy-3-methylbenzamide]		> 100	
O=C(NCc1ccc(F)cc1)c1cc(Br)ccc1O [Compound 63, 5-Bromo-N-(4-fluoro-benzyl)-2-hydroxybenzamide]		> 100	
